Test results: patent US12404283B2, “c-MYC mRNA translation modulators and uses thereof in the treatment of cancer” (Anima Biotech Inc., priority 2022, dated 2025)

Tested on: c-Myc
Assay: c-Myc immunofluorescence assay
Format: cell-based, human
Conditions: A549 cells, 24 hours treatment, anti-c-Myc immunofluorescence
Outline: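 A549 cells grown 48 h, exposed 24 h to rising compound concentrations, then fixed, permeabilised and stained for c-Myc plus DAPI. Nuclear-segmented c-Myc fluorescence quantified by high-content imaging at 20×; EC50 from logistic dose–response fits.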

NCc1ccc(-c2cn3c(n2)sc2cc(C(=O)NCCCN4CCCCC4)ccc23)cc1F [compound 375, 2-(4-(aminomethyl)-3-fluorophenyl)-N-(3-(piperidin-1-yl)propyl)benzo[d]imidazo [2,1-b]thiazole-7-carboxamide]
Myc Efficacy (−LogEC50): +++ (+++ ≥6)

NCc1ccc(-c2cn3c(n2)sc2cc(C(=O)NCCCN4CCCCC4)ccc23)cc1Cl [compound 376, 2-(4-(aminomethyl)-3-chlorophenyl)-N-(3-(piperidin-1-yl)propyl)benzo[d]imidazo [2,1-b]thiazole-7-carboxamide]
Myc Efficacy (−LogEC50): +++ (+++ ≥6)

NCc1ccc(-c2cn3c(n2)sc2cc(C(=O)NCCCN4CCCCC4)ccc23)cc1C(F)(F)F [compound 378, 2-(4-(aminomethyl)-3-(trifluoromethyl)phenyl)-N-(3-(piperidin-1-yl)propyl)benzo[d]imidazo [2,1-b]thiazole-7-carboxamide]
Myc Efficacy (−LogEC50): +++ (+++ ≥6)

NCc1ccc(-c2cn3c(n2)sc2cc(C(=O)NCCCN4CCCCC4)ccc23)cc1C(F)F [compound 379, 2-(4-(aminomethyl)-3-(difluoromethyl)phenyl)-N-(3-(piperidin-1-yl)propyl)benzo[d]imidazo [2,1-b]thiazole-7-carboxamide]
Myc Efficacy (−LogEC50): +++ (+++ ≥6)

Cc1cc(-c2cn3c(n2)sc2cc(C(=O)NCCCN4CCCCC4)ccc23)ccc1CN [compound 381, 2-(4-(aminomethyl)-3-methylphenyl)-N-(3-(piperidin-1-yl)propyl)benzo[d]imidazo [2,1-b]thiazole-7-carboxamide]
Myc Efficacy (−LogEC50): +++ (+++ ≥6)

NCc1c(F)cc(-c2cn3c(n2)sc2cc(C(=O)NCCCN4CCCCC4)ccc23)cc1F [compound 383, 2-(4-(aminomethyl)-3,5-difluorophenyl)-N-(3-(piperidin-1-yl)propyl)benzo[d]imidazo [2,1-b]thiazole-7-carboxamide]
Myc Efficacy (−LogEC50): ++ (++ ≥5 and <6)

NCc1c(F)cc(-c2cn3c(n2)sc2cc(C(=O)NCCCN4CCCCC4)ccc23)cc1Cl [compound 384, 2-(4-(aminomethyl)-3-chloro-5-fluorophenyl)-N-(3-(piperidin-1-yl)propyl)benzo[d]imidazo [2,1-b]thiazole-7-carboxamide]
Myc Efficacy (−LogEC50): ++ (++ ≥5 and <6)

CNC(=O)c1ccc(-c2nc3sc4cc(C(=O)NCCCN5CCCCC5)ccc4n3n2)c(F)c1 [compound 386, 2-(2-fluoro-4-(methylcarbamoyl)phenyl)-N-(3-(piperidin-1-yl)propyl)benzo[4,5]thiazolo [3,2-b][1,2,4]triazole-6-carboxamide]
Myc Efficacy (−LogEC50): +++ (+++ ≥6)

NCc1ccc(-c2nc3sc4cc(C(=O)NCCCN5CCCCC5)ccc4n3n2)c(F)c1 [compound 387, 2-(4-(aminomethyl)-2-fluorophenyl)-N-(3-(piperidin-1-yl)propyl)benzo[4,5]thiazolo [3,2-b][1,2,4]triazole-6-carboxamide]
Myc Efficacy (−LogEC50): +++ (+++ ≥6)

CCN(CC)CCCNC(=O)c1ccc2c(c1)sc1nc(-c3ccc(CN)cc3F)nn12 [compound 388, 2-(4-(aminomethyl)-2-fluorophenyl)-N-(3-(diethylamino)propyl) benzo[4,5]thiazolo[3,2-b][1,2,4]triazole-6-carboxamide]
Myc Efficacy (−LogEC50): ++ (++ ≥5 and <6)

CNC(=O)c1ccc(-c2nc3sc4cc(C(=O)NCCCN5CCC(F)CC5)ccc4n3n2)c(F)c1 [compound 389, 2-(2-fluoro-4-(methylcarbamoyl)phenyl)-N-(3-(4-fluoropiperidin-1-yl)propyl)benzo[4,5]thiazolo [3,2-b][1,2,4]triazole-6-carboxamide]
Myc Efficacy (−LogEC50): ++ (++ ≥5 and <6)

NCc1ccc(-c2nc3sc4cc(C(=O)NCCCN5CCC(F)CC5)ccc4n3n2)c(F)c1 [compound 390, 2-(4-(aminomethyl)-2-fluorophenyl)-N-(3-(4-fluoropiperidin-1-yl)propyl)benzo[4,5]thiazolo [3,2-b][1,2,4]triazole-6-carboxamide]
Myc Efficacy (−LogEC50): ++ (++ ≥5 and <6)

NCc1ccc(-c2nc3sc4cc(C(=O)NCCCN5CCCCC5)ccc4n3n2)cc1 [compound 392, 2-(4-(aminomethyl)phenyl)-N-(3-(piperidin-1-yl)propyl)benzo[4,5]thiazolo [3,2-b][1,2,4]triazole-6-carboxamide]
Myc Efficacy (−LogEC50): +++ (+++ ≥6)

O=C(NCCCN1CCCCC1)c1ccc2c(c1)sc1nc(-c3ccc(CNC4CC4)cc3)nn12 [compound 393, 2-(4-((cyclopropylamino)methyl)phenyl)-N-(3-(piperidin-1-yl)propyl)benzo[4,5]thiazolo [3,2-b][1,2,4]triazole-6-carboxamide]
Myc Efficacy (−LogEC50): +++ (+++ ≥6)

CCN(CC)CCCNC(=O)c1ccc2c(c1)sc1nc(-c3ccc(CNC4CC4)cc3)nn12 [compound 394, 2-(4-((cyclopropylamino)methyl)phenyl)-N-(3-(diethylamino)propyl)benzo [4,5]thiazolo[3,2-b][1,2,4]triazole-6-carboxamide]
Myc Efficacy (−LogEC50): ++ (++ ≥5 and <6)

CCN(CC)CCCNC(=O)c1ccc2c(c1)sc1nc(-c3ccc(CNC4CC4)cc3F)nn12 [compound 395, 2-(4-((cyclopropylamino)methyl)-2-fluorophenyl)-N-(3-(diethylamino)propyl)benzo [4,5]thiazolo[3,2-b][1,2,4]triazole-6-carboxamide]
Myc Efficacy (−LogEC50): ++ (++ ≥5 and <6)

O=C(NCCCN1CCCCC1)c1ccc2c(c1)sc1nc(-c3ccc(CNC4CC4)cc3F)nn12 [compound 396, 2-(4-((cyclopropylamino)methyl)-2-fluorophenyl)-N-(3-(piperidin-1-yl)propyl)benzo[4,5]thiazolo [3,2-b][1,2,4]triazole-6-carboxamide]
Myc Efficacy (−LogEC50): ++ (++ ≥5 and <6)

CCN(CC)CCCNC(=O)c1ccc2c(c1)sc1nc(-c3ccc(C4(N)CC4)cc3)nn12 [compound 397, 2-(4-(1-aminocyclopropyl)phenyl)-N-(3-(diethylamino)propyl)benzo [4,5]thiazolo[3,2-b][1,2,4]triazole-6-carboxamide]
Myc Efficacy (−LogEC50): ++ (++ ≥5 and <6)

NC1(c2ccc(-c3nc4sc5cc(C(=O)NCCCN6CCCCC6)ccc5n4n3)cc2)CC1 [compound 398, 2-(4-(1-aminocyclopropyl)phenyl)-N-(3-(piperidin-1-yl)propyl)benzo[4,5]thiazolo [3,2-b][1,2,4]triazole-6-carboxamide]
Myc Efficacy (−LogEC50): ++ (++ ≥5 and <6)

CNC(=O)c1ccc(-c2cn3c(n2)sc2cc(C(=O)NCCCN4CCCCC4)ncc23)cc1 [compound 406, 2-(4-(methylcarbamoyl)phenyl)-N-(3-(piperidin-1-yl)propyl)imidazo[2′,1′:2,3] thiazolo[4,5-c]pyridine-7-carboxamide]
Myc Efficacy (−LogEC50): ++ (++ ≥5 and <6)

O=C(NCCCN1CCCCC1)c1ccc2c(c1)sc1nc(-c3ccc([C@H]4CCCN4)cc3)cn12 [compound 412, (R)-N-(3-(piperidin-1-yl)propyl)-2-(4-(pyrrolidin-2-yl)phenyl)benzo[d]imidazo [2,1-b]thiazole-7-carboxamide]
Myc Efficacy (−LogEC50): +++ (+++ ≥6)

O=C(NCCCN1CCCCC1)c1ccc2c(c1)sc1nc(-c3ccc([C@@H]4CCCN4)cc3)cn12 [compound 413, (S)-N-(3-(piperidin-1-yl)propyl)-2-(4-(pyrrolidin-2-yl)phenyl)benzo[d]imidazo [2,1-b]thiazole-7-carboxamide]
Myc Efficacy (−LogEC50): +++ (+++ ≥6)

CCN(CC)CCCNC(=O)c1ccc2c(c1)sc1nc(-c3ccc([C@H]4CCCN4)cc3)cn12 [compound 414, (R)-N-(3-(diethylamino)propyl)-2-(4-(pyrrolidin-2-yl)phenyl)benzo[d]imidazo [2,1-b]thiazole-7-carboxamide]
Myc Efficacy (−LogEC50): +++ (+++ ≥6)

CCN(CC)CCCNC(=O)c1ccc2c(c1)sc1nc(-c3ccc([C@@H]4CCCN4)cc3)cn12 [compound 415, (S)-N-(3-(diethylamino)propyl)-2-(4-(pyrrolidin-2-yl)phenyl)benzo[d]imidazo [2,1-b]thiazole-7-carboxamide]
Myc Efficacy (−LogEC50): +++ (+++ ≥6)

O=C(NCCCN1CCCCC1)c1ccc2c(c1)sc1nc(-c3ccc(C4CCCN4)cc3F)cn12 (stereo not drawn) [compound 416, 2-(2-fluoro-4-(pyrrolidin-2-yl)phenyl)-N-(3-(piperidin-1-yl)propyl)benzo[d]imidazo [2,1-b]thiazole-7-carboxamide]
Myc Efficacy (−LogEC50): +++ (+++ ≥6)

O=C(NCCCN1CCCCC1)c1ccc2c(c1)sc1nc(-c3ccc([C@H]4CCCN4)cc3F)cn12 [compound 417, (R)-2-(2-fluoro-4-(pyrrolidin-2-yl)phenyl)-N-(3-(piperidin-1-yl)propyl)benzo[d]imidazo [2,1-b]thiazole-7-carboxamide]
Myc Efficacy (−LogEC50): +++ (+++ ≥6)

O=C(NCCCN1CCCCC1)c1ccc2c(c1)sc1nc(-c3ccc([C@@H]4CCCN4)cc3F)cn12 [compound 418, (S)-2-(2-fluoro-4-(pyrrolidin-2-yl)phenyl)-N-(3-(piperidin-1-yl)propyl)benzo[d]imidazo [2,1-b]thiazole-7-carboxamide]
Myc Efficacy (−LogEC50): +++ (+++ ≥6)

O=C(NCCCN1CCC(F)CC1)c1ccc2c(c1)sc1nc(-c3ccc([C@H]4CCCN4)cc3F)cn12 [compound 419, (R)-2-(2-fluoro-4-(pyrrolidin-2-yl)phenyl)-N-(3-(4-fluoropiperidin-1-yl)propyl)benzo[d]imidazo [2,1-b]thiazole-7-carboxamide]
Myc Efficacy (−LogEC50): +++ (+++ ≥6)

O=C(NCCCN1CCC(F)CC1)c1ccc2c(c1)sc1nc(-c3ccc([C@@H]4CCCN4)cc3F)cn12 [compound 420, (S)-2-(2-fluoro-4-(pyrrolidin-2-yl)phenyl)-N-(3-(4-fluoropiperidin-1-yl)propyl)benzo[d]imidazo [2,1-b]thiazole-7-carboxamide]
Myc Efficacy (−LogEC50): +++ (+++ ≥6)

O=C(NCCCN1CCCCC1)c1ccc2c(c1)sc1nc(-c3ccc([C@H]4CCCN4)cc3F)nn12 [compound 421, (R)-2-(2-fluoro-4-(pyrrolidin-2-yl)phenyl)-N-(3-(piperidin-1-yl)propyl)benzo[4,5]thiazolo [3,2-b][1,2,4]triazole-6-carboxamide]
Myc Efficacy (−LogEC50): ++ (++ ≥5 and <6)
